According to patent US9708336B2, “Metallo-beta-lactamase inhibitors” (priority 2014, dated 2017):
Where two headings read alike, the source gives them in different places.

What was measured:
NDM-1 = NDM-1 (Klebsiella pneumoniae, UniProt C7C422); assay: biochemical; format: biochemical; details: read-out: NDM-1 IC50
IMP-1 = IMP-1 (Serratia marcescens, UniProt P52699); assay: biochemical; format: biochemical; details: read-out: IMP-1 IC50
VIM-1 = VIM-1 (Pseudomonas aeruginosa (strain ATCC 15692 / DSM 22644 / CIP 104116 / JCM 14847 / LMG 12228 / 1C / PRS 101 / PAO1), UniProt A0A0F7KYQ8); assay: Enzyme activity: determination of IC50, fluorescence assay with CCF2-FA substrate (VIM-1); format: biochemical
[1] = system: Escherichia coli expressing NDM-1 (CLB30005); assay: Antibiotic potentiation activity: synergistic concentration (MITC95) with imipenem, OD600 growth; format: cell-based; details: for Escherichia coli expressing NDM-1 (CLB 30005) MITC95: concentration giving 95% inhibition of bacterial growth; for Escherichia coli MITC95: Escherichia coli expressing NDM-1 (CLB30005), 95% growth inhibition
Outline: (§1)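 Clinical MBL-producing strains (E. coli NDM-1, S. marcescens IMP-1, K. pneumoniae VIM-1) from overnight plates were diluted 1:100 into 1.1×CAMHB. Compound was tested with imipenem at 4 μg/ml (optionally 1 μg/ml) or without it. After 22–24 h at 35 °C, growth was read as OD600.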

[2] = system: Klebsiella pneumoniae expressing VIM-1 (IHMA599644); assay: as above; format: cell-based; details: for Klebsiella pneumoniae expressing VIM-1 (IHMA 599644) MITC95: concentration giving 95% inhibition of bacterial growth; for Klebsiella pneumoniae MITC95: Klebsiella pneumoniae expressing VIM-1 (IHMA599644), 95% growth inhibition
Outline: as §1

[3] = system: Serratia marcescens expressing IMP-1 (CL5741); assay: as above; format: cell-based; details: for Serratia marcescens expressing IMP-1 (CL5741) MITC95: concentration giving 95% inhibition of bacterial growth; for Serratia marcescens MITC95: Serratia marcescens expressing IMP-1 (CL5741), 95% growth inhibition
Outline: as §1

[4] = fluorescence assay with CCF2-FA substrate
[5] = fluorescence assay with CCF2-FA substrate, read-out: VIM-1 IC50
[6] = NDM-1 enzyme, CCF2-FA fluorescence assay
[7] = IMP-1 enzyme, CCF2-FA fluorescence assay
[8] = VIM-1 enzyme, CCF2-FA fluorescence assay, read-out: VIM-1 IC50

NDM-1, sequence (C7C422 whole entry, looked up, species assumed): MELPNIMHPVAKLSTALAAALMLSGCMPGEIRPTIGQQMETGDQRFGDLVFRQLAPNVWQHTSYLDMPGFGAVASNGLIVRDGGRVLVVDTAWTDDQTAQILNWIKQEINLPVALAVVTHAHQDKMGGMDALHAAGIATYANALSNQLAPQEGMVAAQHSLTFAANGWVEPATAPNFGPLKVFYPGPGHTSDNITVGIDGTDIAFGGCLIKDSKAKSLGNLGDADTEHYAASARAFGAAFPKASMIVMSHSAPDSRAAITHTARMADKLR
IMP-1, sequence (P52699 whole entry, looked up): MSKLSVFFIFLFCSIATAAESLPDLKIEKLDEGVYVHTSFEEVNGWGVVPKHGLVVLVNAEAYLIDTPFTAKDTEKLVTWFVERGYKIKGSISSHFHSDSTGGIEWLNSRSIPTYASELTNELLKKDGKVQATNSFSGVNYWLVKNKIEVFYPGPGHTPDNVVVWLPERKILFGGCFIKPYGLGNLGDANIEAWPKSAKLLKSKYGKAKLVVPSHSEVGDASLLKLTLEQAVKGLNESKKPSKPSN

`NS(=O)(=O)c1nccc(-c2cnc3[nH]ccc3c2)c1-c1nn[nH]n1` [Example 212, 4-(1H-pyrrolo[2,3-b]pyridin-5-yl)-3-(2H-tetrazol-5-yl)pyridine-2-sulfonamide] showed an IC50 (NDM-1; [4]) of 7.91 nM, an IC50 (IMP-1; [4]) of 415 nM and an IC50 (VIM-1; [5]) of 13.1 nM. The “Escherichia coli expressing NDM-1 (CLB 30005) MITC95” value [1] was 0.3906 µM, the “Klebsiella pneumoniae expressing VIM-1 (IHMA 599644) MITC95” value [2] was 3.125 µM and the “Serratia marcescens expressing IMP-1 (CL5741) MITC95” value [3] was 18.75 µM.
`COC(=O)c1ccc(-c2ccnc(S(N)(=O)=O)c2-c2nnn[nH]2)cc1` [Example 182, Methyl 4-(2-sulfamoyl-3-(1H-tetrazol-5-yl)pyridin-4-yl)benzoate] showed an IC50 (NDM-1; [4]) of 32.4 nM, an IC50 (IMP-1; [4]) of 348 nM and an IC50 (VIM-1; VIM-1 IC50, fluorescence assay with CCF2-FA substrate) of 91.4 nM. For the same compound, the “Escherichia coli expressing NDM-1 (CLB 30005) MITC95” value [1] was 4.688 µM, the “Klebsiella pneumoniae expressing VIM-1 (IHMA 599644) MITC95” value [2] was 200 µM and the “Serratia marcescens expressing IMP-1 (CL5741) MITC95” value [3] was 100 µM.
With `CCCc1ccc(-c2cccc(S(N)(=O)=O)c2-c2nnn[nH]2)cn1` [Example 302, 3-(6-propylpyridin-3-yl)-2-(1H-tetrazol-5-yl)benzenesulfonamide] the IC50 (NDM-1; [6]) was 5.85 nM, the IC50 (IMP-1; [7]) was 110 nM and the IC50 (VIM-1; [8]) was 38.5 nM. The “Escherichia coli MITC95” value [1] was 0.3906 µM, the “Klebsiella pneumoniae MITC95” value [2] was 150 µM and the “Serratia marcescens MITC95” value [3] was 3.906 µM.
`COc1cccc(-c2cccc(S(N)(=O)=O)c2-c2nn[nH]n2)n1` [Example 37, 3-(6-methoxypyridin-2-yl)-2-(2H-tetrazol-5-yl)benzenesulfonamide] was tested, and the IC50 (NDM-1; [4]) was 26.4 nM, the IC50 (IMP-1; [4]) was 1210 nM and the IC50 (VIM-1; [5]) was 206 nM. The “Escherichia coli expressing NDM-1 (CLB 30005) MITC95” value [1] was 2.344 µM, the “Klebsiella pneumoniae expressing VIM-1 (IHMA 599644) MITC95” value [2] was 200 µM and the “Serratia marcescens expressing IMP-1 (CL5741) MITC95” value [3] was 50 µM.
`NS(=O)(=O)c1cccc(-c2ccn3cncc3c2)c1-c1nn[nH]n1` [Example 247, 3-(Imidazo[1,5-a]pyridin-7-yl)-2-(2H-tetrazol-5-yl)benzenesulfonamide] gave an IC50 (NDM-1; [6]) of 14.6 nM, an IC50 (IMP-1; [7]) of 479 nM and an IC50 (VIM-1; [8]) of 116 nM. The “Escherichia coli MITC95” value [1] was 0.3906 µM, the “Klebsiella pneumoniae MITC95” value [2] was 37.5 µM and the “Serratia marcescens MITC95” value [3] was 25 µM.
`NS(=O)(=O)c1cccc(C2CCCN(C(=O)C3CC3)C2)c1-c1nn[nH]n1` (stereo not drawn) [Example 177, 3-(1-(cyclopropanecarbonyl)piperidin-3-yl)-2-(2H-tetrazol-5-yl)benzenesulfonamide] was tested, and the IC50 (NDM-1; [4]) was 12.8 nM, the IC50 (IMP-1; [4]) was 668 nM and the IC50 (VIM-1; [5]) was 733 nM. The “Escherichia coli expressing NDM-1 (CLB 30005) MITC95” value [1] was 6.25 µM, the “Klebsiella pneumoniae expressing VIM-1 (IHMA 599644) MITC95” value [2] was greater than 200 µM and the “Serratia marcescens expressing IMP-1 (CL5741) MITC95” value [3] was 37.5 µM.
`NS(=O)(=O)c1cccc(-c2ccc(C(=O)NCCO)cc2)c1-c1nn[nH]n1` [Example 17, N-(2-hydroxyethyl)-3′-sulfamoyl-2′-(2H-tetrazol-5-yl)biphenyl-4-carboxamide] gave an IC50 (NDM-1; [4]) of 8.57 nM, an IC50 (IMP-1; [4]) of 87.5 nM and an IC50 (VIM-1; [5]) of 209 nM. The “Escherichia coli expressing NDM-1 (CLB 30005) MITC95” value [1] was 0.7813 µM, the “Klebsiella pneumoniae expressing VIM-1 (IHMA 599644) MITC95” value [2] was 100 µM and the “Serratia marcescens expressing IMP-1 (CL5741) MITC95” value [3] was 53.13 µM.
For `CC1C(=O)Nc2ccc(-c3cccc(S(N)(=O)=O)c3-c3nn[nH]n3)cc21` (stereo not drawn) [Example 73, 3-(3-methyl-2-oxo-2,3-dihydro-1H-indo1-5-yl)-2-(2H-tetrazol-5-yl)benzenesulfonamide], the IC50 (NDM-1; [4]) was 6.49 nM, the IC50 (IMP-1; [4]) was 156 nM and the IC50 (VIM-1; [5]) was 66.7 nM. The “Escherichia coli expressing NDM-1 (CLB 30005) MITC95” value [1] was 1.563 µM, the “Klebsiella pneumoniae expressing VIM-1 (IHMA 599644) MITC95” value [2] was 100 µM and the “Serratia marcescens expressing IMP-1 (CL5741) MITC95” value [3] was 18.75 µM.
`Cc1ccc(-c2cc(-c3cccc(C(N)=O)c3)cc(S(N)(=O)=O)c2-c2nn[nH]n2)cc1` [Example 295, 4″-methyl-5′-sulfamoyl-4′-(2H-tetrazol-5-yl)-[1,1′:3′,1″-terphenyl]-3-carboxamide] showed an IC50 (NDM-1; [6]) of 0.637 nM, an IC50 (IMP-1; [7]) of 16.1 nM and an IC50 (VIM-1; [8]) of 126 nM. The “Escherichia coli MITC95” value [1] was 1.953 µM, the “Klebsiella pneumoniae MITC95” value [2] was greater than 200 µM and the “Serratia marcescens MITC95” value [3] was 1.563 µM.
